Target: T1, α4β7 (adhesion of RPMI cells to CS-1) (Homo sapiens, UniProt P13612+P26010)
T1 construct: endogenous in cells
T1 sequence (P13612 34-1032): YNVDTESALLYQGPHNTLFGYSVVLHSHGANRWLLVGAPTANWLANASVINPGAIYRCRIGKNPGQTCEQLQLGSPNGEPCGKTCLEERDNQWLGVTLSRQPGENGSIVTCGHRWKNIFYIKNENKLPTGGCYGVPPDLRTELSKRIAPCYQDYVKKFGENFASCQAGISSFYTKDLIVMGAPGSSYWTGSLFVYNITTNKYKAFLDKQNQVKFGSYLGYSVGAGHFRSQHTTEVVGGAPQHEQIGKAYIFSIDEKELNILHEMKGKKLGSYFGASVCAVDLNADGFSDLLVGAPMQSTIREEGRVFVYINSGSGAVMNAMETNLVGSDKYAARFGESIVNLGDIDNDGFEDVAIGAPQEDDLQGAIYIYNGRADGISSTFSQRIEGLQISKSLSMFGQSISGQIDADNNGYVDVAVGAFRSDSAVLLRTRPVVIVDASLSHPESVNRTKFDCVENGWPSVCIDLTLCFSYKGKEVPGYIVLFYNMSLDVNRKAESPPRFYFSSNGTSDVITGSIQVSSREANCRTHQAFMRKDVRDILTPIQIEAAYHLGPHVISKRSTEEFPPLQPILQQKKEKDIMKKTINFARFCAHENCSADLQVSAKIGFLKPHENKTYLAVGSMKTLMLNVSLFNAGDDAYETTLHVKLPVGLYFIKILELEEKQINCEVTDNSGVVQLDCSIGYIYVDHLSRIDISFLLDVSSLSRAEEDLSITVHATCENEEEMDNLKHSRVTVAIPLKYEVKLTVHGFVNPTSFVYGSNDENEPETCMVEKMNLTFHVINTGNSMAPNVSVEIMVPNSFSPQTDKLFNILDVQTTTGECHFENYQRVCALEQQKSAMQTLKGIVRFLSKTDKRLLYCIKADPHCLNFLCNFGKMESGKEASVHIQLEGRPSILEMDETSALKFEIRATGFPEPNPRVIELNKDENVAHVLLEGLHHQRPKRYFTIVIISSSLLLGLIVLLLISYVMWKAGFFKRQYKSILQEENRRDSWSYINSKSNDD
T1 sequence (P26010 20-798): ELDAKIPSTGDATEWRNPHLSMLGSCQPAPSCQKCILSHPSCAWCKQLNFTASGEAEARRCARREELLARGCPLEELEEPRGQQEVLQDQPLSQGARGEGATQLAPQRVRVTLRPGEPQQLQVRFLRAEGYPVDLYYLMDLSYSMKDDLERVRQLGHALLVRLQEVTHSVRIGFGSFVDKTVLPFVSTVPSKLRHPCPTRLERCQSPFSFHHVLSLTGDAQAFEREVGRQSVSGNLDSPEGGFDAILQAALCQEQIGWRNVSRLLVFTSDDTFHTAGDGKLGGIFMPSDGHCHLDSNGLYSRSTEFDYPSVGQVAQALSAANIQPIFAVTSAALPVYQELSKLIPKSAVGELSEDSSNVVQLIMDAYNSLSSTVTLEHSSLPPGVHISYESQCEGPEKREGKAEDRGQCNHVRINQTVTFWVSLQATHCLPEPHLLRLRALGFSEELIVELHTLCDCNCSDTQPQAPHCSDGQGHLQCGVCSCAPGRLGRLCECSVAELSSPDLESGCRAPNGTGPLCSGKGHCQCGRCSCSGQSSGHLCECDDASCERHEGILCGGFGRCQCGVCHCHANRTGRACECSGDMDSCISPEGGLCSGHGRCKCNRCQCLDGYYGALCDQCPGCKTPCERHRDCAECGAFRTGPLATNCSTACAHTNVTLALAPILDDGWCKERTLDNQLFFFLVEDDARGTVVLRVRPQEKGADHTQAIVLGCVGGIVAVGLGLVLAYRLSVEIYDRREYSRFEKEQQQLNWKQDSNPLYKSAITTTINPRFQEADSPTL
Assay: RPMI-CS-1 cell adhesion assay
Type: cell-based
Conditions: adhesion of RPMI B-cell line (expresses α4β7) to CS-1 peptide coated microwells; read-out: RPMI-CS-1 IC50 value range
Description: RPMI-CS-1 Cell Adhesion Assay:
The test compounds were added in increasing concentrations to RPMI cells and then the cell-compound mixture was added to CS-1 coated microwells. The plates were incubated, washed and the percentage of attached cells were quantitated.
The CS-1 derived peptide, […], and the scrambled control peptide, […], were synthesized at Tanabe Research Laboratories, USA, Inc. on a Beckman 990 synthesizer using t-Boc methodology. […] Microtiter plates were coated with 20 μg/ml human serum albumin (HSA) for 2 hours at room temperature, washed once with PBS and derivatized with 10 μg/ml SPDP for 1 hour. […] Unbound peptide was removed from the plates by washing with PBS. To block non-reacted sites, the plates were coated with 100 μl of a 2.5 mg/ml BSA solution in PBS for one hour at 37° C. 100 μl of RPMI cells (2.5×10^6 cells/ml) in Dulbecco's Modified Eagles Medium (DMEM) plus 0.25% ovalbumin were added to peptide coated dishes and incubated for 1 hour at 37° C. […] To do this, the enzyme substrate p-nitrophenyl-N-acetyl-β-D-glucoseaminide is dissolved at 7.5 mM in 0.1 M citrate buffer pH 5 and then mixed with an equal volume of 0.5% Triton X100. 50 μl of the substrate solution was added to the plates and the plates were incubated at 37° C. for 60 minutes.
In this assay, IC50 value ranges (μM) are depicted by A, B, C and D. These ranges as follows. D>5≧C>1≧B>0.3≧A

Row | IC50 | SMILES
1 | > 5000 nM | COc1cccc(OC)c1-c1ccc(C[C@H](NC(=O)c2c(Cl)cccc2Cl)C(=O)OC2CCCCC2)cc1 [Example 276, N-(2,6-Dichlorobenzoyl)-4-(2,6-dimethoxyphenyl)-L-phenylalanine cyclohexyl ester]
2 | 1000 to 5000 nM | CN1CCCC1CCOc1ccccc1-c1ccc(C[C@H](NC(=O)c2c(Cl)cccc2Cl)C(=O)O)cc1 (some centres unmarked) [Example 43]
3 | 300 to 1000 nM | O=C(N[C@@H](Cc1ccc(-c2ccccc2OCc2ccncc2)cc1)C(=O)O)c1c(Cl)cccc1Cl [Example 39]
4 | 300 to 1000 nM | COc1ccccc1-c1ccc(C[C@H](NC(=O)c2ccc(NC(C)=O)cc2Cl)C(=O)O)cc1 [Example 67, N-[2-Chloro-4-(acetylamino)benzoyl]-4-(2-methoxyphenyl)-L-phenylalanine]
5 | < 300 nM | CCOc1cccc(OC)c1-c1ccc(C[C@H](NC(=O)c2c(Cl)cccc2Cl)C(=O)O)cc1 [Example 14, N-(2,6-Dichlorobenzoyl)-4-(2-ethoxy-6-methoxyphenyl)-L-phenylalanine]
6 | 300 to 1000 nM | O=C(NS(=O)(=O)c1ccccc1-c1ccc(C[C@H](NC(=O)c2c(Cl)cccc2Cl)C(=O)O)cc1)c1ccccc1 [Example 18, N-(2,6-Dichlorobenzoyl)-4-[2-(N-benzoylsulfamoyl)phenyl]-L-phenylalanine]
7 | < 300 nM | COc1cccc(OC)c1-c1ccc(C[C@H](NC(=O)c2c(Cl)cc(-c3cccnc3)cc2Cl)C(=O)O)cc1 [Example 311]
8 | 1000 to 5000 nM | CC(=O)Nc1cc(C[C@H](NC(=O)c2c(Cl)cccc2Cl)C(=O)O)ccc1-c1ccccc1 [Example 343, N-(2,6-Dichlorobenzoyl)-3-acetylamino-4-phenyl-L-phenylalanine]
9 | 300 to 1000 nM | COc1ccccc1-c1ccc(C[C@H](NC(=O)c2ccccc2Br)C(=O)O)cc1 [Example 96]
10 | 300 to 1000 nM | O=Cc1sccc1-c1ccc(C[C@H](NC(=O)c2c(Cl)cccc2Cl)C(=O)O)cc1 [Example 214, N-(2,6-Dichlorobenzoyl)-4-(2-formyl-3-thienyl)-L-phenylalanine]
11 | < 300 nM | COc1cc(CN2CCCCC2)cc(OC)c1-c1ccc(C[C@H](NC(=O)c2c(Cl)cccc2Cl)C(=O)O)cc1 [Example 256, N-(2,6-Dichlorobenzoyl)-4-[2,6-dimethoxy-4-(piperidinomethyl)phenyl]-L-phenylalanine]
12 | > 5000 nM | CS(=O)(=O)NC(=O)c1ccccc1-c1ccc(C[C@H](NC(=O)c2c(Cl)cccc2Cl)C(=O)O)cc1 [Example 61, N-(2,6-Dichlorobenzoyl)-4-[2-[(N-methanesulfonyl)carbamoyl]phenyl]-L-phenylalanine]
13 | 1000 to 5000 nM | COc1cccc(OC)c1-c1ccc(C[C@H](NC(=O)c2cccc([N+](=O)[O-])c2)C(=O)O)cc1 [Example 284]
14 | < 300 nM | COc1cc(OCc2ccccn2)cc(OC)c1-c1ccc(C[C@H](NC(=O)c2c(Cl)cccc2Cl)C(=O)O)cc1 [Example 349]
15 | < 300 nM | CCCN1CCN(Cc2cc(OC)c(-c3ccc(C[C@H](NC(=O)c4c(Cl)cccc4Cl)C(=O)O)cc3)c(OC)c2)CC1 [Example 252]
16 | < 300 nM | COc1cc(CN2CCOCC2)cc(OC)c1-c1ccc(C[C@H](NC(=O)c2c(Cl)cccc2Cl)C(=O)O)cc1 [Example 133]
17 | 300 to 1000 nM | CCOC(=O)Nc1cc(C[C@H](NC(=O)c2c(Cl)cccc2Cl)C(=O)O)ccc1-c1ccccc1OC [Example 345]
18 | 1000 to 5000 nM | COc1cccc(OC)c1-c1ccc(C[C@H](NC(=O)c2c(Cl)cccc2Cl)C(=O)OCc2ccncc2)cc1 [Example 274, N-(2,6-Dichlorobenzoyl)-4-(2,6-dimethoxyphenyl)-L-phenylalanine 4-pyridylmethyl ester]
19 | 300 to 1000 nM | O=C(N[C@@H](Cc1ccc(-c2ccccc2OCc2cccnc2)cc1)C(=O)O)c1c(Cl)cccc1Cl [Example 40]
20 | 1000 to 5000 nM | O=C(NCCCO)c1ccccc1-c1ccc(C[C@H](NC(=O)c2c(Cl)cccc2Cl)C(=O)O)cc1 [Example 57, N-(2,6-Dichlorobenzoyl)-4-[2-[N-(3-hydroxypropyl)carbamoyl]phenyl]-L-phenylalanine]
21 | < 300 nM | COc1cc(OCc2ccncc2)cc(OC)c1-c1ccc(C[C@H](NC(=O)c2c(Cl)cccc2Cl)C(=O)O)cc1 [Example 348]
22 | 1000 to 5000 nM | O=C(N[C@@H](Cc1ccc(-c2ccsc2CO)cc1)C(=O)O)c1c(Cl)cccc1Cl [Example 218, N-(2,6-Dichlorobenzoyl)-4-(2-hydroxymethyl-3-thienyl)-L-phenylalanine]
23 | < 300 nM | COc1ccc(-c2ccc(C[C@H](NC(=O)c3c(Cl)cccc3Cl)C(=O)O)cc2)c(OC)c1 [Example 9, N-(2,6-Dichlorobenzoyl)-4-(2,4-dimethoxyphenyl)-L-phenylalanine]
24 | < 300 nM | COc1cc(N(C)C)cc(OC)c1-c1ccc(C[C@H](NC(=O)c2c(Cl)cccc2Cl)C(=O)O)cc1 [Example 164, N-(2,6-Dichlorobenzoyl)-4-[2,6-dimethoxy-4-(dimethylamino)phenyl]-L-phenylalanine]
25 | 1000 to 5000 nM | O=C(N[C@@H](Cc1ccc(-c2ccncc2)cc1)C(=O)O)c1c(Cl)cccc1Cl [Example 217, N-(2,6-Dichlorobenzoyl)-4-(4-pyridyl)-L-phenylalanine]
26 | < 300 nM | COc1cc(CN2CCS(=O)(=O)CC2)cc(OC)c1-c1ccc(C[C@H](NC(=O)c2c(Cl)cccc2Cl)C(=O)O)cc1 [Example 263A, N-(2,6-dichlorobenzoyl)-4-[2,6-dimethoxy-4-(thiomorpholinomethyl)phenyl]-L-phenylalanine S,S-dioxide]
27 | < 300 nM | COc1cccc(OC)c1-c1ccc(C[C@H](NC(=O)c2c(F)cccc2F)C(=O)O)cc1 [Example 3, N-(2,6-Difluorobenzoyl)-4-(2,6-dimethoxyphenyl)-L-phenylalanine]
28 | < 300 nM | COc1ccccc1-c1ccc(C[C@H](NC(=O)c2ccc(NS(=O)(=O)C(F)(F)F)cc2Cl)C(=O)O)cc1 [Example 65, N-[2-Chloro-4-(trifluoromethanesulfonylamino)benzoyl]-4-(2-methoxyphenyl)-L-phenylalanine]

Row | SMILES | IC50
29 | CC(C)(C)OC(=O)Nc1ccccc1-c1ccc(C[C@H](NC(=O)c2c(Cl)cccc2Cl)C(=O)O)cc1 [Example 22, N-(2,6-Dichlorobenzoyl)-4-[2-(tertbutoxycarbonylamino)phenyl]-L-phenylalanine] | 1000 to 5000 nM

— patent US6855843B2, “Inhibitors of α4 mediated cell adhesion” (Tanabe Seiyaku Co., Ltd., priority 1998, dated 2005)
